From patent publication US20110230472A1, “RING-FUSED AZOLE DERIVATIVE HAVING PI3K-INHIBITING ACTIVITY” (Shionogi & Co., Ltd., priority 2008, published 2011)

What was measured:
[1] = molecular target: T1, PI-3 kinase γ (Homo sapiens, UniProt P48736); test: PI3Kγ inhibitory activity, PI3-kinase HTRF assay (inhibition ratio); format: biochemical; conditions: 0.5 h; for inhibition at 50 µM: compound at 50 μM
Summary of the method: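 PI3Kγ preincubated 10 min with compound and PIP2 substrate (MgCl2, DTT), then ATP added for 30 min at room temperature. PIP3 detected by HTRF (665/620 nm ratio) after 18 h. Inhibition ratio at 50 or 10 μmol/L, normalised to no-compound and no-enzyme controls.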

[2] = molecular target: T2, human ether-a-go-go related gene (hERG) channel (Homo sapiens, UniProt Q12809); test: hERG test, whole-cell patch-clamp; format: cell-based; conditions: HEK293 cell expressing hERG; applied for 10 minutes; concentration not given
T2 construct: expressed in transfected cells; host or cells: HEK293
From the text: For the purpose of risk evaluation of QT interval extension of electrocardiogram, the activity on delayed rectification K^+ current (IKr), which plays an important role in a cardiac ventricle repolarization process, was examined using the HEK293 cell that was made to express human ether-a-go-go related gene (hERG) channel.
Using an automatic patch-clamp system (PatchXpress 7000A, Axon Instruments Inc.), by a whole-cell patch-clamp method, after the cell was maintained at a membrane potential of −80 mV, IKr induced upon applying depolarizing stimulation of +50 mV for 2 seconds and further applying repolarizing stimulation of −50 mV for 2 seconds was recorded. After generated electric current became stable, a test substance dissolved at an intended concentration in extracellular fluid (137 mmol/L NaCl, 4 mmol/L KCl, 1.8 mmol/L CaCl2.2H2O, 1 mmol/L MgCl2.6H2O, 10 mmol/L glucose, 10 mmol/L HEPES (4-(2-hydroxyethyl)-1-piperazineethanesulfonic acid), pH=7.4) was applied to the cell for 10 minutes under room temperature condition. From the obtained IKr, the absolute value of the maximum tail current was measured using analysis software (DataXpress ver. 1, Molecular Devices Corporation) and the value of the electric current in a maintained membrane potential as baseline. Moreover, an inhibition ratio for the maximum tail current prior to the application of the test substance was calculated and then compared with a group of media-application (0.1% dimethylsulfoxide solution) to evaluate influence of the test substance on IKr.

[3] = tested on: Salmonella typhimurium TA98 line, TA100 line; test: FAT test (mutagenicity); design: key: When the mutagenicity is negative, the compound is shown as (−); When positive, the compound is shown as (+); conditions: TA98 and TA100 lines; non-metabolism-activation and metabolism-activation conditions
Protocol: 20 μL of Salmonella enterica subsp. typhimurium (Salmonella typhimurium TA98 line, TA100 line) cryopreserved was inoculated to 10 mL of liquid nutrient medium (2.5% Oxoid nutrient broth No. 2) and then precultured at 37° C. for 10 hours with shaking. Regarding TA98 line, after 9 mL of a bacterial suspension was centrifuged (2000×g, 10 minutes) to remove the culture solution, the bacteria was suspended in 9 mL of Micro F buffer solution (K2HPO4: 3.5 g/L, KH2PO4: 1 g/L, (NH4)2SO4: 1 g/L, tri-sodium citric acid dihydrate: 0.25 g/L, MgSO4.7H2O: 0.1 g/L), and then added to 110 mL of Exposure media (Micro F buffer solution containing biotin: 8 μg/mL, histidine: 0.2 μg/mL, glucose: 8 mg/mL). Regarding TA 100 line, 120 mL of Exposure media was added to 3.16 mL of the bacterial suspension to prepare a test bacterial suspension. 12 μL of a solution of a test substance in DMSO (diluted eight times in a common ratio of 2 from the maximum dose of 50 mg/mL); 12 μL of DMSO as a negative control; 50 μg/mL 4-nitroquinoline-1-oxide solution in DMSO for TA98 line or 0.25 μg/mL 2-(2-furyl)-3-(5-nitro-2-furyl)acrylamide solution in DMSO as a positive control for TA 100 line in the case of a non-metabolism-activation condition; 12 μL of 40 μg/mL 2-aminoanthracene solution in DMSO for TA98 line or 20 μg/mL of 2-aminoanthracene solution in DMSO for TA100 line in the case of a metabolism-activation condition; were each mixed with 588 μL of the test bacterial suspension (in the case of a metabolism activation condition, a mixed solution of 498 μL of the test bacterial suspension and 90 μL S9 mix) and then cultured at 37° C. at 90 minutes with shaking. 460 μL of the bacterial suspension to which a test substance was exposed was mixed with 230 μL of Indicator media (a Micro F buffer solution containing 8 μg/mL biotin, 0.2 μg/mL histidine, 8 mg/mL glucose, and 37.5 μg/mL bromocresol purple). 50 μL thereof was dispensed to microplate 48 wells/dose and then statically cultured at 37° C. for 3 days. In a well containing bacteria which obtained proliferation potency by mutation of the amino acid (histidine) synthetase gene, the change of pH caused the color change from purple to yellow. Thus, in 48 wells per dose, the number of the bacteria-proliferation wells in which the color changed to yellow was counted, compared with a group of negative controls, and then evaluated. When the mutagenicity is negative, the compound is shown as (−). When positive, the compound is shown as (+).

[4] = molecular target: T3, CYP1A2 (Homo sapiens, UniProt P05177); test: CYP inhibition test, pooled human liver microsome, CYP1A2; format: in vitro ADME; conditions: O-de-ethylation of 7-ethoxyresorufin
T3 construct: enzyme: pooled human liver microsome 0.2 mg protein/mL; from tissue; host or cells: pooled human liver microsome
T3 sequence (P05177 1-516): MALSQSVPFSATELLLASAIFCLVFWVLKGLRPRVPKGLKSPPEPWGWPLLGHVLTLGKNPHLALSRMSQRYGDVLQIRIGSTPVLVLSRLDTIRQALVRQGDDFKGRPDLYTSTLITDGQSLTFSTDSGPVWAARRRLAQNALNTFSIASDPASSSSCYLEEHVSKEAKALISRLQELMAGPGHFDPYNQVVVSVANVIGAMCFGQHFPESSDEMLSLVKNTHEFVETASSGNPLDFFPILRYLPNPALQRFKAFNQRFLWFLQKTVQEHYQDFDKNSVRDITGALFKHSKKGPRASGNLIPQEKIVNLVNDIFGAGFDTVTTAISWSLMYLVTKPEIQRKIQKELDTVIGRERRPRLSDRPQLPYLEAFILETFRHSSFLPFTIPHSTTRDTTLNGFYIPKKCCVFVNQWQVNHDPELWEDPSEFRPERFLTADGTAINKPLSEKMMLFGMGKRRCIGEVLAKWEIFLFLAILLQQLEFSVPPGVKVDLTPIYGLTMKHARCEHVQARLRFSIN
From the text: (§1) O-de-ethylation of 7-ethoxyresorufin (CYP1A2), methyl-hydroxylation of tolbutamide (CYP2C9), 4′-hydroxylation of mephenyloin (CYP2C19), O-demethylation of dextromethorphan (CYP2D6), and hydroxylation of terfenadine (CYP3A4), which are typical substrate for metabolic reactions of human main CYP5 molecular species (CYP1A2, 2C9, 2C19, 2D6, and 3A4), were adopted as indexes.
(§2) The reaction conditions are as follows: substrate: 0.5 μmol/L of ethoxyresorufin (CYP1A2), 100 μmol/L of tolbutamide (CYP2C9), […] of S-mephenyloin (CYP2C19), 5 μmol/L of dextromethorphan (CYP2D6), and 1 μmol/L of terfenadine (CYP3A4); reaction time; 15 minutes; reaction temperature: 37° C.; enzyme: pooled human liver microsome 0.2 mg protein/mL; test drug concentration: 1, 5, 10, and 20 μmol/L (4 points).
(§3) In a 96-well plate, as a reaction solution, five kinds of substrates, a human liver microsome, and a test drug were added to 50 mmol/L Hepes buffer solution in the aforementioned ratio. A coenzyme NADPH was added to start a metabolic reaction, which is an index. After reacting at 37° C. for 15 minutes, a solution of methanol/acetonitrile (1/1 (v/v)) was added to quench the reaction. After centrifugation at 3000 rpm for 15 minutes, resorufin (CYP1A2 metabolite) in the supernatant was quantitated with a fluorescence multilabel counter, and hydroxylated tolbutamide (CYP2C9 metabolite), 4′-hydroxylated mephenyloin (CYP2C19 metabolite), […], terfenadine in alcohol form (CYP3A4 metabolite) were quantitated with LC/MS/MS.
(§4) The case wherein only DMSO (a solvent which dissolved a drug) was added to a reaction system was defined as a control (100%). When a test drug solution was added, the remaining activity (%) at each concentration was calculated, and then IC50 was calculated with a concentration and an inhibition ratio by an inverse estimation using a logistic model.

[5] = molecular target: T4, CYP2C9 (Homo sapiens, UniProt P11712); test: CYP inhibition test, pooled human liver microsome, CYP2C9; format: in vitro ADME; conditions: methyl-hydroxylation of tolbutamide
T4 construct: enzyme: pooled human liver microsome 0.2 mg protein/mL; from tissue; host or cells: pooled human liver microsome
From the text: as §1, §2, §3, §4

[6] = molecular target: T5, CYP2C19 (Homo sapiens, UniProt P33261); test: CYP inhibition test, pooled human liver microsome, CYP2C19; format: in vitro ADME; conditions: 4′-hydroxylation of mephenyloin
T5 construct: enzyme: pooled human liver microsome 0.2 mg protein/mL; from tissue; host or cells: pooled human liver microsome
From the text: as §1, §2, §3, §4

[7] = molecular target: T6, CYP2D6 (Homo sapiens, UniProt P10635); test: CYP inhibition test, pooled human liver microsome, CYP2D6; format: in vitro ADME; conditions: O-demethylation of dextromethorphan
T6 construct: enzyme: pooled human liver microsome 0.2 mg protein/mL; from tissue; host or cells: pooled human liver microsome
From the text: as §1, §2, §3, §4

[8] = molecular target: T7, CYP3A4 (Homo sapiens, UniProt P08684); test: CYP inhibition test, pooled human liver microsome, CYP3A4; format: in vitro ADME; conditions: hydroxylation of terfenadine
T7 construct: enzyme: pooled human liver microsome 0.2 mg protein/mL; from tissue; host or cells: pooled human liver microsome
From the text: as §1, §2, §3, §4

[9] = Solubility test; format: physicochemical; conditions: kinetic from dmso stock; artificial intestinal juice pH 6.8, 1% DMSO, 25° C. for 16 hours
Protocol: The solubility of a compound was determined under a condition in which 1% DMSO was added. 10 mmol/L compound solution was prepared using DMSO, and then 6 μL of the compound solution was added to 594 μL of artificial intestinal juice in pH 6.8 (to 250 mL of 0.2 mol/L potassium dihydrogen phosphate reagent solution was added 118 mL of 0.2 mol/L NaOH reagent solution and water to provide a final volume of 1000 mL). After standing at 25° C. for 16 hours, the mixed solution was filtered with suction. The filtrate was diluted twice with methanol/water (1/1), and then a concentration in the filtration was measured with HPLC or LC/MS/MS by the absolute calibration method.

[10] = Metabolic stability test; format: in vitro ADME; conditions: human liver microsome 0.5 mg protein/mL, 1 mmol/L NADPH, 37° C.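 Also: 100% equals the compound amount at 0 min reaction.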
Protocol: After a subject compound was reacted for a certain time using a pooled human liver microsome commercially available, a reacted sample and an unreacted sample are compared to calculate a survival ratio, and then the degree of metabolism in the liver was evaluated.
0.2 mL of a buffer solution (50 mmol/L of Tris-HCl in pH 7.4, 150 mmol/L of potassium chloride, and 10 mmol/L of magnesium chloride) containing a human liver microsome of 0.5 mg protein/mL was reacted in the presence of 1 mmol/L NADPH at 37° C. for 0 or 30 minutes (oxidative reaction). After reacting, 50 μL of the reaction solution was added to 100 μL of a solution of methanol/acetonitrile (1/1 (v/v)), mixed, and then centrifuged at 3000 rpm for 15 minutes. The test compound in the supernatant was quantitated with LC/MS/MS. The amount of the compound at a reaction time of 0 minute was defined as 100% and, based on that, the percentage of the test compound remained after reacting for 30 minutes was calculated.

[11] = molecular target: T1, PI-3 kinase γ; test: PI3Kγ inhibitory activity (Ki value), HTRF; format: biochemical; conditions: Ki=IC50/(1+10 μM ATP/Km)
Protocol: The PI3Kγ inhibitory activity (Ki value) of a compound was evaluated according to the following procedure:
5 μL of a compound solution containing 10% DMSO and 200 μmol/L of a compound was changed to 5 μL of a compound solution containing 10% DMSO and either 200, 64, 20, 6.4, 2, 0.64, or 0.20 μmol/L of the compound (optionally, this is diluted to a lower concentration). Using a method similar to the method for measuring PI3Kγ inhibitory activity, inhibition ratios were measured in the presence of the compound at 50, 16, 5, 1.6, 0.5, 0.16, and 0.05 μmol/L (optionally, a lower concentration). Then an IC50 value was calculated by a logistic approximation method or the linear regression method using two concentrations that across 50% inhibition. Separately, the ATP concentration in the reaction solution (40 μmol/L ATP, 10 mmol/L MgCl2, 5 mmol/L DTT) at the time of the start of a reaction in the absence of the compound was changed to 80, 40, 20, 10, 5, 2.5, 1.25, or 0.625 μmol/L. Then, HTRF ratios were measured by a similar method. The value obtained by subtracting the HTRF ratio at each ATP concentration from the HTRF ratio in the absence of PI-3 kinase γ was defined as the value obtained by multiplying reaction rate (v) at each ATP concentration with a constant. The Michaelis-Menten constant Km was then calculated by the Lineweaver-Burk plot method. The Ki value of a compound was calculated by the following formula.
Ki=IC50 value/(1+10 μM (test ATP concentration)/Km (μM))

T1 sequence (P48736 whole entry): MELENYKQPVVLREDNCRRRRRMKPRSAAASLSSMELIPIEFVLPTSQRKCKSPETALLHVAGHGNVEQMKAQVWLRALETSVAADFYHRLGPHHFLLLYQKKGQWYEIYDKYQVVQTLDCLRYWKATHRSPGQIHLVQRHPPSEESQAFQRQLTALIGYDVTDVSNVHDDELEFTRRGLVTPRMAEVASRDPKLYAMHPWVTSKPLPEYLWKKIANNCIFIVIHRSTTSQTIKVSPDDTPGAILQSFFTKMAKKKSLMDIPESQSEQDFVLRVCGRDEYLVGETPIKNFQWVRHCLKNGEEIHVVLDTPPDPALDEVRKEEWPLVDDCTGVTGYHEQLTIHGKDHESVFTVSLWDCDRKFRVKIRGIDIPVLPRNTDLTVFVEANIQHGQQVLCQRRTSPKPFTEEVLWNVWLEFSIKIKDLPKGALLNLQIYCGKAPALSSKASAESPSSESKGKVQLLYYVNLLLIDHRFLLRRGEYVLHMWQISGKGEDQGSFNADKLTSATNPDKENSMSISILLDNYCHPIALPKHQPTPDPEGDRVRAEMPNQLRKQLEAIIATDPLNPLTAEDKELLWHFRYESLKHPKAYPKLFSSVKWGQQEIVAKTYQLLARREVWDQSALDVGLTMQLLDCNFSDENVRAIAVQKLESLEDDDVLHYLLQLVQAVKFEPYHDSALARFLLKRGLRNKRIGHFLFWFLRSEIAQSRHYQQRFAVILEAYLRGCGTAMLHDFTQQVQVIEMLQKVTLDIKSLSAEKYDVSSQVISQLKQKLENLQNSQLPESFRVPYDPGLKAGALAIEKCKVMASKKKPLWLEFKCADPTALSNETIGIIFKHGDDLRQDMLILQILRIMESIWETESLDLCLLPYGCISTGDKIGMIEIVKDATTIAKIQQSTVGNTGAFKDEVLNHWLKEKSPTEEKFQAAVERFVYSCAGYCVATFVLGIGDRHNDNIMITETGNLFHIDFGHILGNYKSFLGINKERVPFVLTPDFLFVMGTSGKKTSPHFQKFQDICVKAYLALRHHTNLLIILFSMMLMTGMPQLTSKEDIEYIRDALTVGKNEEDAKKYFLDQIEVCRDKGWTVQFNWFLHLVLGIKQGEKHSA
T2 sequence (Q12809 whole entry): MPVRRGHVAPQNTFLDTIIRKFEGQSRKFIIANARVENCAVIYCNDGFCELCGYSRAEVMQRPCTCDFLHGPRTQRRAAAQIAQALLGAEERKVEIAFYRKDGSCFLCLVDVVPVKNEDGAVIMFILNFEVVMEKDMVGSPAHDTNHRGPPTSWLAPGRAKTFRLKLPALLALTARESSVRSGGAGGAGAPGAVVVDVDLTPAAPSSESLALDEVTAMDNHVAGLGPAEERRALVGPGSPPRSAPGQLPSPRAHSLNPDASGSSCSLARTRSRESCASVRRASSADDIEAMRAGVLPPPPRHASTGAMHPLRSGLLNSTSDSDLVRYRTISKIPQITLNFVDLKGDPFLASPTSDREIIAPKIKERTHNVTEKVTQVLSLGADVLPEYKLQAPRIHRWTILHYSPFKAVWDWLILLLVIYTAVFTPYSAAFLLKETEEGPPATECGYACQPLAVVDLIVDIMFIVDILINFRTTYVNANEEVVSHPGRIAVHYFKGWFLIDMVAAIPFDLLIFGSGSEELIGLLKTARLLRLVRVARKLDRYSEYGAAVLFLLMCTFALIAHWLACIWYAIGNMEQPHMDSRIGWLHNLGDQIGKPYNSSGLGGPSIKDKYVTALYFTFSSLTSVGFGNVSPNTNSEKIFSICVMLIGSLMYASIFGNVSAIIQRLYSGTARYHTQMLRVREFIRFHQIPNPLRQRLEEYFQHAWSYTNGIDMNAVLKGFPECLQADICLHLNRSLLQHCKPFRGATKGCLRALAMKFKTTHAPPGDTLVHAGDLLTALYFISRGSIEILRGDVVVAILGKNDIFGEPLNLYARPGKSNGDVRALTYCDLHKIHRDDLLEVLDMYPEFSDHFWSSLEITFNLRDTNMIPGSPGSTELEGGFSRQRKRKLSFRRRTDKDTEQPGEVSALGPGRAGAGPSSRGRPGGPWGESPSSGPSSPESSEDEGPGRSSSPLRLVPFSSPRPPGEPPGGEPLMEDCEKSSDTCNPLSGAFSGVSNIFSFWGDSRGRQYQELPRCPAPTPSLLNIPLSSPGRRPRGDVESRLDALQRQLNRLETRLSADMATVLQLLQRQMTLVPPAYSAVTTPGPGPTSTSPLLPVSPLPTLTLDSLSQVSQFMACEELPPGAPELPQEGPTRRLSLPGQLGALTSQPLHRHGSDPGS
T7 sequence (P08684 whole entry): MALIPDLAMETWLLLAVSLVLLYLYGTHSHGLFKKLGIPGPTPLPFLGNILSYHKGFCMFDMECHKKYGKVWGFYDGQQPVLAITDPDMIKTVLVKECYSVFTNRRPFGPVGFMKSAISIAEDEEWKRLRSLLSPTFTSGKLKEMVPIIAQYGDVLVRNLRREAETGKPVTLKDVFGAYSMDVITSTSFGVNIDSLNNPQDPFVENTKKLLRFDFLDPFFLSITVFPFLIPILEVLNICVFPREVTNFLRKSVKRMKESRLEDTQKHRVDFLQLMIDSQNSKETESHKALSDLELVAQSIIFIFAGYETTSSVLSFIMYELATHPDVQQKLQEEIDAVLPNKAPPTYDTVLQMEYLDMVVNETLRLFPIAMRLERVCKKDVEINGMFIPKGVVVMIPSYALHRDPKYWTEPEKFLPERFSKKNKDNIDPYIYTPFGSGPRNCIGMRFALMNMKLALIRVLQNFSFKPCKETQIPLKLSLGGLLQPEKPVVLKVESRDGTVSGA
T6 sequence (P10635 whole entry): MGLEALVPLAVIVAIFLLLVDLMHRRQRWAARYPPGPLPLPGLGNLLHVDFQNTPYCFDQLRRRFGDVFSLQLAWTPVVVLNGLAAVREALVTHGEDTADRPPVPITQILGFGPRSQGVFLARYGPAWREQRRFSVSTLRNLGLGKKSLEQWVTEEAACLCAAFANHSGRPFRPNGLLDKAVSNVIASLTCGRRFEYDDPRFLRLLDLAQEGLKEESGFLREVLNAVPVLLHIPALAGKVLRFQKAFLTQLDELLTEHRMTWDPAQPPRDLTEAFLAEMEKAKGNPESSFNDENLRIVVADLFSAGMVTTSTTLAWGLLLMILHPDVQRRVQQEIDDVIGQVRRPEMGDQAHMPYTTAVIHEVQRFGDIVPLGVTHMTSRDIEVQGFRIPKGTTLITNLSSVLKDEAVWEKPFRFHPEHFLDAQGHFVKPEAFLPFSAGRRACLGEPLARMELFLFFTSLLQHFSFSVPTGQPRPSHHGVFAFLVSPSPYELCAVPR
T4 sequence (P11712 whole entry): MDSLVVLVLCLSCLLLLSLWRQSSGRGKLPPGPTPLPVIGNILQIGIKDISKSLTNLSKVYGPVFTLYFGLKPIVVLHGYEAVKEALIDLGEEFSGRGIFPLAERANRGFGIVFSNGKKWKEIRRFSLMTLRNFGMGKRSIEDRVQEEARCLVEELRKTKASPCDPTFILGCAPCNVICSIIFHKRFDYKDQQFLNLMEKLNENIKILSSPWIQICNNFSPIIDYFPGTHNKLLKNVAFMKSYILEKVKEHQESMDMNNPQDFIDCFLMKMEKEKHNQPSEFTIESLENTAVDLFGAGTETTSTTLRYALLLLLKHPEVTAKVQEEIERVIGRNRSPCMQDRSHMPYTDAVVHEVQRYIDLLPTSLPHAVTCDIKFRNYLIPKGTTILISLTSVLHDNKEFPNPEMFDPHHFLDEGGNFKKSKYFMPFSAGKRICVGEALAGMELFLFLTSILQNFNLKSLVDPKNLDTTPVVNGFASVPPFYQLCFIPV
T5 sequence (P33261 whole entry): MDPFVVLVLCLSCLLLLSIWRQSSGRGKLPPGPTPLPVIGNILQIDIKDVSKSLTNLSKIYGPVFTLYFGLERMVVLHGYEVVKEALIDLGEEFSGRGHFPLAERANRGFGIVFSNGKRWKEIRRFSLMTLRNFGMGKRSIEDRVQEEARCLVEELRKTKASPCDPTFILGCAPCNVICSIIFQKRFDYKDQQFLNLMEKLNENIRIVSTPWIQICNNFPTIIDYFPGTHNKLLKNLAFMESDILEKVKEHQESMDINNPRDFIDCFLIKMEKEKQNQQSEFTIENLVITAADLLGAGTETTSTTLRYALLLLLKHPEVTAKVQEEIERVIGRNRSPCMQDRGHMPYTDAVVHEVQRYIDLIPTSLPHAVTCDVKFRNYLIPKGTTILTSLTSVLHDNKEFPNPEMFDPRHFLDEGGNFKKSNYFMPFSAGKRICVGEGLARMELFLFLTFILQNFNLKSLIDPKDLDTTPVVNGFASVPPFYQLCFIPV

Compound	inhibition at 50 µM ([1]; PI3Kγ)	solubility at 16 h [9]	inhibition ratio for the maximum tail current (IKr) [2]	mutagenicity (FAT test) [3]	further results
CNC(=O)Nc1cc2n(n1)CCN2c1cc(Br)cc(C(=O)N2CCCC2)c1 [Compound I-181]	≥ 95%			(−)	
COc1cc(N2CCc3nc(NC(=O)Nc4ccccc4)sc3C2)nc(OC)n1 [Compound I-203]	95%			(−)	
COc1cc(N2CCc3nc(NC(=O)NCCC(=O)O)sc3C2)nc(OC)n1.Cl.Cl [Compound I-262]		> 50 µM	1.6%		inhibition at 10 µM ([1]; PI3Kγ, compound at 10 μM): ≥ 95%; Ki [11]: 0.047 µM; percentage of the test compound remained after reacting for 30 minutes [10]: 92.8%
CNC(=O)Nc1nc2c(s1)CN(c1nc(OC)nc(OC)n1)CC2 [Compound I-327]				(−)	inhibition at 10 µM ([1]; compound at 10 μmol/L): 84%

More lines, main results first:

inhibition at 50 µM ([1]; PI3Kγ)	solubility at 16 h [9]	Compound	inhibition ratio for the maximum tail current (IKr) [2]	mutagenicity (FAT test) [3]	further results
≥ 95%		CNC(=O)Nc1cc2n(n1)CCN2c1ccc(C(N)=O)cc1 [Compound I-160]	−0.4%		
≥ 95%	> 50 µM	CNC(=O)Nc1cc2n(n1)CCN2c1cc(Br)cc(C(=O)N2CCNCC2)c1 [Compound I-185]	8.3%		IC50 [4]: > 20 µM; IC50 [5]: > 20 µM; IC50 [6]: > 20 µM; IC50 [7]: > 20 µM; IC50 [8]: > 20 µM
81%	> 50 µM	CC(=O)Nc1nc2c(s1)CN(c1ccccc1)CC2 [Compound I-230]	9.1%		percentage of the test compound remained after reacting for 30 minutes [10]: 87.9%
